Measurements published in patent US11602529B2, “Use of EZH2 inhibitors for treating cancer” (Epizyme, Inc., priority 2017, dated 2023).

How the values were obtained:
[1] = tested on: refractory B-cell non-Hodgkin lymphoma and advanced solid tumors, including epithelioid sarcoma; conditions: cited from earlier work
[2] = Oral bioavailability; conditions: in vivo
[3] = In vivo efficacy in animal models
[4] = tested on: epithelioid sarcoma; experiment: PD-L1, CD4 and CD8 staining of pre- and post-dose tissue biopsies of a subject with epithelioid sarcoma
[5] = tested on: genetically defined cancer cells; experiment: Target methyl mark inhibition and killing of cancer cells in vitro; format: cell-based
[6] = tested on: soft tissue sarcoma; experiment: Post-treatment biopsy of patients with soft tissue sarcoma (Example 2)

CCN(c1cc(-c2ccc(CN3CCOCC3)cc2)cc(C(=O)NCc2c(C)cc(C)[nH]c2=O)c1C)C1CCOCC1 [Compound 44, tazemetostat]
PD-L1 expression in tumor sample ([1]; after 4 weeks of treatment): modest expression of PD-L1 on immune cells
histological assessment of on-treatment tumor specimen ([1]; not present at baseline nor at disease progression): strong immune infiltrate
clinical activity in patients ([1]; phase I clinical study): antitumor activity
oral bioavailability [2]: orally bioavailable
in vivo efficacy following inhibition of target methyl mark [3]: sustained in vivo efficacy
PD-L1 expression in tumor after treatment ([4]; 800 mg twice daily orally, 25 weeks, post-dose vs pre-dose biopsy): upregulated PD-L1
T-cell markers CD4 and CD8 in tumors with upregulated PD-L1 ([4]; after treatment): positive for T-cell markers CD4 and CD8
CD8+ immune cells, share of overall cellularity ([4]; post-dose sample, 800 mg twice daily orally, 25 weeks (pre-dose about 5%)): about 30%
CD4+ histiocytoid cells, cellularity ([4]; post-dose sample, 800 mg twice daily orally, 25 weeks (pre-dose about 20%)): about 5%
CD4+ cells, share of overall cellularity ([4]; post-dose sample, 800 mg twice daily orally, 25 weeks (pre-dose also about 2%)): about 2%
effect of target methyl mark inhibition on cancer cells [5]: killing of genetically defined cancer cells in vitro
cells present in the tumor showing expression of PD-L1 ([6]; biopsy after 20 weeks of treatment): more than 50%
cells present in the tumor showing expression of PD-L1 ([6]; second patient, biopsy after 25 weeks of treatment): more than 80%
